These results are taken from US12018011B2, “Macrocyclic compounds and compositions, and methods of preparing and using the same” (Kura Oncology, Inc., priority 2021, dated 2024).

pIC50: −log10 of the molar value. Where only a bound is given, the exact number is not on record here.

In this assay the target is T1, Recombinant human farnesyl transferase (FTase) (Homo sapiens, UniProt P49356).
T1 construct: purchased Crelux (Martinsried, Germany)
Briefly: FTase fluorescence assay (farnesylation of dansyl-GCVLS peptide). It is filed as biochemical. Conditions: recombinant human FTase 2.5 nM, Dansyl-GCVLS 85 nM, FPP 30 nM, 30° C., 50 minutes. From the text:
T24/83 cell line was purchased from the European Collection of Authenticated Cell Cultures (Salisbury, UK). Recombinant human farnesyl transferase (FTase) and geranylgeranyl transferase type-1 (GGTase) were obtained from Crelux (Martinsried, Germany). Dansyl labelled GCVLS peptide was purchased from Bachem (Torrance, CA), and Dansyl labelled GCVLL peptide was purchased from Bio Synthesis (Lewisville, TX). Farnesyl Pyrophosphate (FPP) and Geranylgeranyl pyrophosphate (GGPP) were purchased from Cayman (Ann Arbor, MI).
Specific biochemical activity of the compounds disclosed herein as FTase inhibitors was determined by measuring the ability of the compounds to block the farnesylation by recombinant FTase of fluorescent (i.e., dansyl-labeled) test substrates derived from the CAAX box of farnesylated proteins, such as the peptide GCVLS.
The IC50 value of the compounds disclosed herein as inhibitors of Ftase and/or GGTase, was determined by measuring the concentration (provided in nM) necessary to achieve inhibition of enzyme activity by 50% (IC50). […] Compounds having a low IC50 value against FTase, for example an IC50 (FTase)<100 nM, such as an IC50 (FTase)<10 nM, are preferred. Compounds having a low IC50 value against FTase and a high IC50 value against GGTase, for example an IC50 (FTase)<100 nM, such as an IC50 (FTase)<10 nM, and an IC50 (GGTase)>100 nM, are potent and selective inhibitors of FTase, and are particularly preferred.
The inhibition activities of the compounds disclosed herein against Ftase and GGTase were measured in the respective fluorescence assays as follows:
For the FTase assay, recombinant human FTase (2.5 nM), Dansyl labelled GCVLS peptide (85 nM), FPP (30 nM) and inhibitor were mixed in assay buffer (50 mM Tris, pH 7.5, 10 mM magnesium chloride, 10 μM zinc chloride, 0.08% CHAPS, 5 mM dithiothreitol) and incubated in a total volume of 20 μL at 30° C. for 50 minutes.
For both the FTase assay and GGTase assay, fluorescence intensity was detected (excitation at 340 nm and emission at 486 nm) using EnVision (PerkinElmer; Waltham, MA), IC50 determinations were performed using a sigmoidal dose-response model with Xlfit software (IDBS, Inc.; Boston, MA), and tipifarnib was used as a positive control. All the assay plates for each assay passed the QC criteria (S/B, Z factor).
As to `[2H]C([2H])([2H])n1c(=O)cc2c3cc(ccc31)[C@](O)(c1cncn1C)c1ccc(C#N)c(c1)COc1cccc-2c1` (racemic) [(R)-55, (R)-3-hydroxy-21-(methyl-d3)-3-(1-methyl-1H-imidazol-5-yl)-2^2-oxo-2^1,2^2-dihydro-6-oxa-2(4,6)-quinolina-1,4(1,3)-dibenzenacyclohexaphane-4^4-carbonitrile], the pIC50 (as a rule, the IC50 on a negative log10 scale, so that one unit is a factor of ten) is less than 7.00. As to `[2H]C([2H])([2H])n1c(=O)cc2c3cc(ccc31)[C@](N)(c1cncn1C)c1ccc(C#N)c(c1)COc1cccc-2c1` (racemic) [(R)-56, (R)-3-amino-2^1-(methyl-d3)-3-(1-methyl-1H-imidazol-5-yl)-2^2-oxo-2^1,2^2-dihydro-6-oxa-2(4,6)-quinolina-1,4(1,3)-dibenzenacyclohexaphane-4^4-carbonitrile], the pIC50 was less than 7.00. For the compound `Cn1cncc1[C@]1(N)c2ccc(C#N)c(c2)COc2cccc(c2)-c2cc(=O)n(C3CC3)c3ccc1cc23` (racemic) [(R)-57, (R)-3-amino-21-cyclopropyl-3-(1-methyl-1H-imidazol-5-yl)-2^2-oxo-2^1,2^2-dihydro-6-oxa-2(4,6)-quinolina-1,4(1,3)-dibenzenacyclohexaphane-4^4-carbonitrile], the pIC50 was less than 7.00. With `Cn1cncc1[C@]1(N)c2ccc(C#N)c(c2)COc2cccc(c2)-c2cc(C#N)nc3ccc1cc23` (racemic) [(R)-58, (R)-3-amino-3-(1-methyl-1H-imidazol-5-yl)-6-oxa-2(4,6)-quinolina-1,4(1,3)-dibenzenacyclohexaphane-2^2,4^4-dicarbonitrile], the pIC50 is 7.00 to 8.00.

Turning to `Cn1cncc1[C@]1(N)c2ccc(C#N)c(c2)COc2cccc(c2)-c2cc(N3CCOCC3)nc3ccc1cc23` (racemic) [(R)-66, (R)-3-amino-3-(1-methyl-1H-imidazol-5-yl)-2^2-morpholino-6-oxa-2(4,6)-quinolina-1,4(1,3)-dibenzenacyclohexaphane-4^4-carbonitrile], the pIC50 was not below 8.00. Consider `[2H]C([2H])([2H])n1cncc1[C@]1(N)c2ccc(C#N)c(c2)COc2cccc(c2)-c2cc(C#N)nc3ccc1cc23` (racemic) [(R)-70, (R)-3-amino-3-(1-(methyl-d3)-1H-imidazol-5-yl)-6-oxa-2(4,6)-quinolina-1,4(1,3)-dibenzenacyclohexaphane-2^2,4^4-dicarbonitrile], for which the negative logarithm of the IC50 (pIC50) was 7.00 to 8.00. In the case of `Cn1cncc1[C@]1(O)c2ccc(C#N)c(c2)CCc2cccc(c2)-c2cc(=O)n(C)c3ccc1cc23` (racemic) [(S)-6, (S)-3-hydroxy-2^1-methyl-3-(1-methyl-1H-imidazol-5-yl)-2^2-oxo-2^1,2^2-dihydro-2(4,6)-quinolina-1,4(1,3)-dibenzenacyclohexaphane-4^4-carbonitrile], the pIC50 is less than 7.00. `Cn1cncc1[C@]1(N)c2ccc(C#N)c(c2)CCc2cccc(c2)-c2cc(=O)n(C)c3ccc1cc23` (racemic) [(S)-7, (S)-3-amino-2^1-methyl-3-(1-methyl-1H-imidazol-5-yl)-22-oxo-2^1,2^2-dihydro-2(4,6)-quinolina-1,4(1,3)-dibenzenacyclohexaphane-4^4-carbonitrile]: the pIC50 is less than 7.00. As to `[2H]C([2H])([2H])n1c(=O)cc2c3cc(ccc31)[C@](N)(c1cncn1C)c1ccc(C#N)c(c1)CCc1cccc-2c1` (racemic) [(S)-8, (S)-3-amino-2^1-(methyl-d3)-3-(1-methyl-1H-imidazol-5-yl)-22-oxo-2^1,2^2-dihydro-2(4,6)-quinolina-1,4(1,3)-dibenzenacyclohexaphane-4^4-carbonitrile], the pIC50 is less than 7.00. Next, `Cn1cncc1[C@]1(N)c2ccc(C#N)c(c2)CCc2cccc(c2)-c2cc(C#N)nc3ccc1cc23` (racemic) [(S)-9, (S)-3-amino-3-(1-methyl-1H-imidazol-5-yl)-2(4,6)-quinolina-1,4(1,3)-dibenzenacyclohexaphane-2^2,4^4-dicarbonitrile]: less than 7.00; `[2H]C([2H])([2H])n1c(=O)cc2c3cc(ccc31)[C@@H](n1cncc1C)c1ccc(Cl)c(c1)COc1cccc-2c1` [(R)-76, (R)-4^4-chloro-2^1-(methyl-d3)-3-(5-methyl-1H-imidazol-1-yl)-2^1,2^2-dihydro-6-oxa-2(4,6)-quinolina-1,4(1,3)-dibenzenacyclohexaphan-2^2-one]: 7.00 to 8.00; `[2H]C([2H])([2H])n1c(=O)cc2c3cc(ccc31)[C@@H](n1cnc(C)c1)c1ccc(Cl)c(c1)COc1cccc-2c1` [(R)-77, (R)-4^4-chloro-2^1-(methyl-d3)-3-(4-methyl-1H-imidazol-1-yl)-2^1,2^2-dihydro-6-oxa-2(4,6)-quinolina-1,4(1,3)-dibenzenacyclohexaphan-2^2-one]: 7.00 to 8.00.

Consider `[2H]C([2H])([2H])n1cncc1[C@]1(O)c2ccc(C#N)c(c2)COc2cccc(c2)-c2cc(C#N)nc3ccc1cc23` [(R)-078, (R)-3-hydroxy-3-(1-(methyl-d3)-1H-imidazol-5-yl)-6-oxa-2(4,6)-quinolina-1,4(1,3)-dibenzenacyclohexaphane-2^2 4^4-dicarbonitrile], for which the pIC50 was 7.00 to 8.00. For `[2H]C([2H])([2H])n1c(=O)cc2c3cc(ccc31)[C@@H](n1ncnc1C)c1ccc(Cl)c(c1)COc1cccc-2c1` [(R)-079, (R)-4^4-chloro-2^1-(methyl-d3)-3-(5-methyl-1H-1,2,4-triazol-1-yl)-2^1,2^2-dihydro-6-oxa-2(4,6)-quinolina-1,4(1,3)-dibenzenacyclohexaphan-2^2-one], the pIC50 was 7.00 to 8.00. Next, `[2H]C([2H])([2H])n1c(=O)cc2c3cc(ccc31)[C@@H](n1cnc(C)n1)c1ccc(Cl)c(c1)COc1cccc-2c1` [(R)-080, (R)-4^4-chloro-2^1-(methyl-d3)-3-(3-methyl-1H-1,2,4-triazol-1-yl)-2^1,2^2-dihydro-6-oxa-2(4,6)-quinolina-1,4(1,3)-dibenzenacyclohexaphan-2^2-one]: 7.00 to 8.00; `Cn1cncc1[C@]1(N)c2ccc(C#N)c(c2)COc2cccc(c2)-c2nccc3ccc1cc23` [(R)-86, (R)-3-amino-3-(1-methyl-1H-imidazol-5-yl)-6-oxa-2(1,7)-isoquinolina-1,4(1,3)-dibenzenacyclohexaphane-4^4-carbonitrile]: less than 7.00; `Cn1cncc1[C@]1(N)c2ccc(C#N)c(c2)COc2cccc(c2)-c2cc(OC3COC3)nc3ccc1cc23` [(R)-89, (R)-3-amino-3-(1-methyl-1H-imidazol-5-yl)-2^2-(oxetan-3-yloxy)-6-oxa-2(4,6)-quinolina-1,4(1,3)-dibenzenacyclohexaphane-4^4-carbonitrile]: 7.00 to 8.00. Next, `Cc1cn([C@H]2c3ccc(C#N)c(c3)COc3cccc(c3)-c3cc(C#N)nc4ccc2cc34)cn1` [(R)-90, (R)-3-(4-methyl-1H-imidazol-1-yl)-6-oxa-2(4,6)-quinolina-1,4(1,3)-dibenzenacyclohexaphane-2^2,4^4-dicarbonitrile]: 7.00 to 8.00; `Cn1cncc1[C@@]1(N)c2ccc(C#N)c(c2)COc2cccc(c2)-c2cc(N3CCOCC3)nc3ccc1cc23` [(S)-66, (S)-3-amino-3-(1-methyl-1H-imidazol-5-yl)-2^2-morpholino-6-oxa-2(4,6)-quinolina-1,4(1,3)-dibenzenacyclohexaphane-4^4-carbonitrile]: not below 8.00. The value for `[2H]C([2H])([2H])n1cncc1[C@@]1(N)c2ccc(C#N)c(c2)COc2cccc(c2)-c2cc(C#N)nc3ccc1cc23` [(S)-70, (S)-3-amino-3-(1-(methyl-d3)-1H-imidazol-5-yl)-6-oxa-2(4,6)-quinolina-1,4(1,3)-dibenzenacyclohexaphane-2^2 4^4-dicarbonitrile] was not below 8.00; that for `[2H]C([2H])([2H])n1c(=O)cc2c3cc(ccc31)[C@H](n1cncc1C)c1ccc(Cl)c(c1)COc1cccc-2c1` [(S)-76, (S)-4^4-chloro-2^1-(methyl-d3)-3-(5-methyl-1H-imidazol-1-yl)-2^1,2^2-dihydro-6-oxa-2(4,6)-quinolina-1,4(1,3)-dibenzenacyclohexaphan-2^2-one] was 7.00 to 8.00.

For `[2H]C([2H])([2H])n1c(=O)cc2c3cc(ccc31)[C@H](n1cnc(C)c1)c1ccc(Cl)c(c1)COc1cccc-2c1` [(S)-77, (S)-4^4-chloro-2^1-(methyl-d3)-3-(4-methyl-1H-imidazol-1-yl)-2^1,2^2-dihydro-6-oxa-2(4,6)-quinolina-1,4(1,3)-dibenzenacyclohexaphan-2^2-one], the pIC50 was 7.00 to 8.00.
